Measured values taken from patent publication US20230102520A1, “INHIBITORS OF LOW MOLECULAR WEIGHT PROTEIN TYROSINE PHOSPHATASE (LMPTP) AND USES THEREOF” (Sanford Burnham Prebys Medical Discovery Institute, priority 2019, published 2023).

biological target: T1, human LMPTP-A (Homo sapiens, UniProt P24666); experiment: Enzyme Assay of Inhibition of LMPTP-A; format: biochemical; settings: phosphatase assay, OMFP or pNPP substrate, 50 mM Bis-Tris pH 6.0, 37° C.
T1 sequence (P24666 1-158): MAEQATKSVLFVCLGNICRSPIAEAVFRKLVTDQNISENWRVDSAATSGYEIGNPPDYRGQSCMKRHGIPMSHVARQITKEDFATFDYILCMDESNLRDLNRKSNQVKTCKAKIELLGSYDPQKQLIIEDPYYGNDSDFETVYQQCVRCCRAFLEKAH
Experimental: Example B-1: Enzyme Assay of Inhibition of LMPTP-A
Phosphatase assays were performed in buffer containing 50 mM Bis-Tris, pH 6.0, 1 mM DTT and 0.01% Triton X-100 at 37° C. For assays conducted with 3-O-methylfluorescein phosphate (OMFP) as substrate, fluorescence was monitored continuously at λex=485 and λem=525 nm. For assays conducted with para-nitrophenylphosphate (pNPP) as substrate, the reaction was stopped by addition of 2× reaction volume of 1 M NaOH, and absorbance was measured at 405 nm. IC50 values of compounds disclosed herein were determined from plots of inhibitor concentration versus percentage of enzyme activity. For inhibitor selectivity assays, each PTP was incubated with either 0.4 mM OMFP or 5 mM pNPP in the presence of 40 μM compound or DMSO. […] For the inhibitor reversibility assay, 50 nM human LMPTP-A was pre-incubated with 10 μM of compound disclosed herein or DMSO for 5 min. The enzyme was diluted 100× in phosphatase assay buffer containing 0.4 mM OMFP and fluorescence was measured at the indicated time points.

Question: `Cc1ccccc1-c1nc2c(N)ncn(Cc3sccc3Cl)c-2n1` [3-[(3-chloro(2-thienyl))methyl]-8-(2-methylphenyl)-3-hydropurine-6-ylamine] was tested. Which IC50 did it give?
Answer: < 1 µM

Question: `Nc1ncn(Cc2c(Cl)cncc2Cl)c2nc(Cc3ccc(F)cc3)nc1-2` [3-[(3,5-dichloro(4-pyridyl))methyl]-8-[(4-fluorophenyl)methyl]-3-hydropurine-6-ylamine] was tested. Which IC50 did it give?
Answer: < 1 µM

Question: With `Nc1ncn(Cc2c(Cl)cncc2Cl)c2nc(-c3ccc4[nH]cnc4c3)nc1-2` [8-benzimidazol-5-yl-3-[(3,5-dichloro(4-pyridyl))methyl]-3-hydropurine-6-ylamine] as the compound, how does the IC50 read?
Answer: < 1 µM

Question: For `Nc1ncn(Cc2c(Br)cncc2Br)c2nc(-c3ccccc3)nc1-2` [3-[(3,5-dibromo(4-pyridyl))methyl]-8-phenyl-3-hydropurine-6-ylamine], which IC50 is on record?
Answer: < 1 µM

Question: With `Cc1ccnc(C)c1Cn1cnc(N)c2nc(-c3ccccc3)nc1-2` [3-[(2,4-dimethyl(3-pyridyl))methyl]-8-phenyl-3-hydropurine-6-ylamine] as the compound, how does the IC50 read?
Answer: < 1 µM

Question: With `Nc1ncn(Cc2c(Cl)ccnc2F)c2nc(-c3ccccc3)nc1-2` [3-[(4-chloro-2-fluoro(3-pyridyl))methyl]-8-phenyl-3-hydropurine-6-ylamine] as the compound, how does the IC50 read?
Answer: < 1 µM

Question: With `Cc1ccccc1-c1nc2c(N)ncn(Cc3c(C)ccnc3C)c-2n1` [3-[(2,4-dimethyl(3-pyridyl))methyl]-8-(2-methylphenyl)-3-hydropurine-6-ylamine] as the compound, how does the IC50 read?
Answer: < 1 µM

Question: Which IC50 does the source give for `Nc1ncn(Cc2c(Cl)cncc2Cl)c2nc(-c3ccc4ccoc4c3)nc1-2` [8-benzo[3,4-b]furan-6-yl-3-[(3,5-dichloro(4-pyridyl))methyl]-3-hydropurine-6-ylamine] here?
Answer: < 1 µM

Question: How did the IC50 turn out when `Nc1ncn(Cc2c(Br)cncc2Br)c2nc(-c3ccc4c(c3)CCCC4)nc1-2` [3-[(3,5-dibromo(4-pyridyl))methyl]-8-(2-5,6,7,8-tetrahydronaphthyl)-3-hydropurine-6-ylamine] was run?
Answer: < 1 µM

Question: Which IC50 does the source give for `Cc1ccccc1-c1nc2c(N)ncn(Cc3c(Br)cnn3C)c-2n1` [3-[(4-bromo-1-methylpyrazol-5-yl)methyl]-8-(2-methylphenyl)-3-hydropurine-6-ylamine] here?
Answer: < 1 µM

Question: How did the IC50 turn out when `Cc1ccccc1-c1nc2c(N)ncn(Cc3c(Cl)ccnc3F)c-2n1` [3-[(4-chloro-2-fluoro(3-pyridyl))methyl]-8-(2-methylphenyl)-3-hydropurine-6-ylamine] was run?
Answer: < 1 µM

Question: For `Nc1ncn(Cc2c(Cl)cncc2Cl)c2nc(-c3cc(F)ccc3F)nc1-2` [3-[(3,5-dichloro(4-pyridyl))methyl]-8-(2,5-difluorophenyl)-3-hydropurine-6-ylamine], which IC50 is on record?
Answer: < 1 µM

Question: With `Nc1ncn(Cc2c(Br)cncc2Br)c2nc(-c3cnn4ccccc34)nc1-2` [3-[(3,5-dibromo(4-pyridyl))methyl]-8-(8-hydropyrazolo[1,5-a]pyridin-3-yl)-3-hydropurine-6-ylamine] as the compound, how does the IC50 read?
Answer: < 1 µM

Question: `Cc1ccccc1-c1nc2c(N)nc(C)n(Cc3c(Br)cncc3Br)c-2n1` [3-[(3,5-dibromo(4-pyridyl))methyl]-2-methyl-8-(2-methylphenyl)-3-hydropurine-6-ylamine] was tested. Which IC50 did it give?
Answer: 1 to 20 µM

Question: How did the IC50 turn out when `Nc1ncn(Cc2c(Cl)ccnc2Cl)c2nc(-c3ccc4c(c3)CCCC4)nc1-2` [3-[(2,4-dichloro(3-pyridyl))methyl]-8-(2-5,6,7,8-tetrahydronaphthyl)-3-hydropurine-6-ylamine] was run?
Answer: < 1 µM

Question: `CCN(CC)Cc1nc2c(N)ncn(Cc3c(Cl)cncc3Cl)c-2n1` [({6-amino-3-[(3,5-dichloro(4-pyridyl))methyl](3-hydropurin-8-yl)}methyl)diethylamine] was tested. Which IC50 did it give?
Answer: 1 to 20 µM

Question: `Cn1ncc(Br)c1Cn1cnc(N)c2nc(-c3ccccc3)nc1-2` [3-[(4-bromo-1-methylpyrazol-5-yl)methyl]-8-phenyl-3-hydropurine-6-ylamine] was tested. Which IC50 did it give?
Answer: < 1 µM

Question: `Cc1ccccc1-c1nc2c(N)nc(C)n(Cc3c(Cl)cncc3Cl)c-2n1` [3-[(3,5-dichloro(4-pyridyl))methyl]-2-methyl-8-(2-methylphenyl)-3-hydropurine-6-ylamine] was tested. Which IC50 did it give?
Answer: 1 to 20 µM

Question: How did the IC50 turn out when `Nc1ncn(Cc2c(Cl)ccnc2Cl)c2nc(Cc3ccc(F)cc3)nc1-2` [3-[(2,4-dichloro(3-pyridyl))methyl]-8-[(4-fluorophenyl)methyl]-3-hydropurine-6-ylamine] was run?
Answer: < 1 µM

Question: How did the IC50 turn out when `Cc1ccccc1-c1nc2c(N)ncn(Cc3scnc3C)c-2n1` [3-[(4-methyl(1,3-thiazol-5-yl))methyl]-8-(2-methylphenyl)-3-hydropurine-6-ylamine] was run?
Answer: < 1 µM

Question: How did the IC50 turn out when `Nc1ncn(Cc2c(Br)cncc2Br)c2nc(-c3cccc4c3CCCC4)nc1-2` [3-[(3,5-dibromo(4-pyridyl))methyl]-8-(5,6,7,8-tetrahydronaphthyl)-3-hydropurine-6-ylamine] was run?
Answer: > 20 µM

Question: For `Nc1ncn(Cc2c(Cl)ncnc2Cl)c2nc(-c3ccccc3)nc1-2` [3-[(4,6-dichloropyrimidin-5-yl)methyl]-8-phenyl-3-hydropurine-6-ylamine], which IC50 is on record?
Answer: < 1 µM
